From patent publication US20040265300A1, “Chimeric molecules containing a module able to target specific cells and a module regulating the apoptogenic function of the permeability transition pore complex (PTPC)” (priority 2001, published 2004)
Ends that are not written are not given here. Peptide text beside a SMILES is read from it. * marks the point of attachment. Biotin = O=C1N[C@H]2[C@H](CS[C@H]2CCCCC(=O)*)N1

Columns and labels:
purified ANT = target: T1, purified ANT (Rattus norvegicus, UniProt Q05962); assay type: binding; conditions: for binding to purified ANT: surface plasmon resonance; for Kd: one ANT concentration only, 50 nM, read-out: relative affinities of ANT for the peptide
T1 sequence (Q05962 1-298): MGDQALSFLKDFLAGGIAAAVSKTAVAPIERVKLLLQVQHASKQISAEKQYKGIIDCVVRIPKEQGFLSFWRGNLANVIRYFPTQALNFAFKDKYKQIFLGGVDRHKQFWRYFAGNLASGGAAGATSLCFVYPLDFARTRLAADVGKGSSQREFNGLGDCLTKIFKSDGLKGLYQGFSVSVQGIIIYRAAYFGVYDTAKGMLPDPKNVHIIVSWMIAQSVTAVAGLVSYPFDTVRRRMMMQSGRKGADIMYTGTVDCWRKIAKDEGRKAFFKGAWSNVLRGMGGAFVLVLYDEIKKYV
Method: (§1) Sensor Chips SA (streptavidin coated sensor chips) were used for immobilisation of the different peptides. Tox1 was immobilised at a density of 0.7 ng/mm^2, Tox0 at a density of 3.7 ng/mm^2,. Ctrl Tox0 at a density of 1.4 ng/mm^2, Tox5 at a density of 1 ng/mm^2, Tox6 at a density of 1 ng/mm^2, Save 1 at a density of 1.3 ng/mm^2, and the control peptide at a density of 0.8 ng/mm^2. Association and dissociation kinetics of ANT and VDAC interactions were followed at a rate of 10 μL/min for 10 minutes (5 minutes association and 5 minutes dissociation). The ligand was regenerated with a 1 minute flux of KSCN 3M. The obtained sensorgrams were analysed by the B1Aeval 3.1 software using the method of double references (Myszka D.G. 2000. Kinetic, equilibrium and thermodynamic analysis of macromolecular interactions with BIACORE. Methods Enzymol. 323:325-340). From the sensorgrams with the ligands were first substracted the sensorgrams obtained with the corresponding analyte solvents. A second substraction was performed with the sensorgrams obtained with the control peptide ligand. The control peptide for the Tox and Save peptides was biot-H19C corresponding to the sequence of the β2-adrenergic receptor (Lebesgue D., Wallukat G., Mijares A., Granier C., Argibay J., and Hoebeke J. (1998) An agonist-like monoclonal antibody to the human β 2-adrenergic receptor. Eur.J. Pharmacol. 348:123-133). The control peptide for Tox0 was Ctr1 Tox0.

[1] = tested on: permeability transition pore (PTP); experiment: Swelling of isolated mitochondria (large amplitude swelling, 90° light scattering); assay type: biochemical, rat; set-up: key to Induction of Mitochondrial swelling (sw): +++ rapid sw; ++ low sw; + very low sw; − no sw; conditions: for Induction of Mitochondrial swelling (sw): 5 μM, t 20 min
Method: Mitochondria are purified from rat liver, as described (Costantini et al., 1996), and resuspended in 250 mM sucrose +0.1 mM EGTA +10 mM -tris[hydroxymethyl]methyl-2-Aminoethanesulfonic acid, pH=7.4). For the induction of PT, mitochondria (0.5 mg protein per ml) are resuspended in PT buffer (200 mM sucrose, 10 mM Tris-MOPS (pH 7.4), 5 MM Tris-succinate, 1 mM Tris-phosphate, 2 μM rotenone, and 10 μM EGTA-Tris), and monitored in an F4500 fluorescence spectrometer (Hitachi, Tokyo, Japan) for the 90° light scattering of light (545 nm) to determine large amplitude swelling after addition of 2 mM atractyloside (Atr), 1 μM cyclosporin A (CsA; Novartis, Basel, Switzerland), 5 μM CaCl2, and/or 0.5 to 20 μM of pTarg-pTox or pTarg-pSave. For the determination of the ΔΨm, mitochondria (0.5 mg protein per ml) are incubated in a buffer supplemented with 1μM rhodamine 123 (Molecular Probes, Eugene, OR) and the dequenching of rhodamine fluorescence (excitation 505 nm, emission 525 nm) is measured as described (Shimizu et al., 1998). Supernatants from mitochondria (6800 g for 15 min; then 20 000 g for 1 h; 4° C.) are frozen at −80° C. until determination of apoptogenic activity on isolated nuclei, DEVD-afc cleaving activity, and immunodetection of cytochrome c and AIF. Cytochrome c and AIF are detected by means of a monoclonal antibody (clone 7H8.2C12, Pharmingen) and a polyclonal rabbit anti-serum (Susin et al. 1999) respectively.

purified VDAC = purified VDAC (Homo sapiens, UniProt P21796); experiment: Surface plasmon resonance, immobilised peptides with purified VDAC; assay type: binding; conditions: for specific binding of VDAC: 50 nM VDAC
Method: as §1

purified VDAC, sequence (P21796 whole entry, species assumed): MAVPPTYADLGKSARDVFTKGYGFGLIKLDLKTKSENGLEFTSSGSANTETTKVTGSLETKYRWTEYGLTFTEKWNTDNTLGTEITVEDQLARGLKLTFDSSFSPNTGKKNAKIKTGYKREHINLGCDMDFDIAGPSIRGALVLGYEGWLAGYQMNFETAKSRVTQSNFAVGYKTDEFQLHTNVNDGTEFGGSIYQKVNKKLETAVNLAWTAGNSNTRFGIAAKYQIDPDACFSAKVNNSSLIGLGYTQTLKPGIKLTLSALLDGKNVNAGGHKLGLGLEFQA

Biot-CNGRC-GG-HFRIGCRHSRIG [Tox1]
binding to purified ANT (purified ANT): Binds Purified ANT
Induction of Mitochondrial swelling (sw) [1]: ++
association of VDAC with the peptide ligand (purified VDAC; VDAC concentrations ten times higher than ANT): extremely low association

C[C@@H](O)[C@H](NC(=O)[C@H](CCCNC(=N)N)NC(=O)[C@H](CCCCN)NC(=O)[C@H](CC(=O)O)NC(=O)CNC(=O)CNC(=O)[C@H](CS)NC(=O)[C@H](CCCNC(=N)N)NC(=O)CNC(=O)[C@H](CC(N)=O)NC(=O)[C@H](CS)NC(=O)CCCC[C@@H]1SC[C@@H]2NC(=O)N[C@@H]21)C(=O)N[C@@H](CCC(N)=O)C(=O)N[C@@H](Cc1ccccc1)C(=O)N[C@@H](Cc1c[nH]c2ccccc12)C(=O)N[C@@H](CCCNC(=N)N)C(=O)N[C@@H](Cc1ccc(O)cc1)C(=O)N[C@@H](Cc1ccccc1)C(=O)N1CCC[C@H]1C(=O)NCC(=O)N[C@@H](CC(N)=O)C(=O)O [Tox5, Biot-CNGRC-GG-DKRTQFWRYFPGN (hANT2m)] (Biotin-CNGRCGGDKRTQFWRYFPGN-OH; N-terminus and C-terminus assumed)
Kd (purified ANT): 0.1 nM
binding to purified ANT (purified ANT): Binds Purified ANT
Induction of Mitochondrial swelling (sw) [1]: ++
specific binding of VDAC (purified VDAC): did not result in any specific binding

Biot-CNGRC-GG-CNGRC [Ctr2Tox1]
Induction of Mitochondrial swelling (sw) [1]: −

Biot-GG-HFRIGCRHSRIG [Ctr3Tox1]
Induction of Mitochondrial swelling (sw) [1]: +

[Ca+2] [Ca 2+, reference compound]
Mitrochondrial swelling (sw) % ([1]; 100 μM): 100%

C[C@H](NC(=O)[C@H](Cc1ccccc1)NC(=O)[C@H](Cc1ccc(O)cc1)NC(=O)[C@H](CCCNC(=N)N)NC(=O)[C@H](Cc1c[nH]c2ccccc12)NC(=O)[C@H](Cc1ccccc1)NC(=O)[C@H](CCC(N)=O)NC(=O)[C@@H](NC(=O)[C@H](CCCNC(=N)N)NC(=O)[C@H](CCCCN)NC(=O)[C@H](CC(=O)O)NC(=O)[C@H](CCCNC(=N)N)NC(=O)[C@H](CCCNC(=N)N)NC(=O)[C@H](CCCNC(=N)N)NC(=O)[C@H](CCC(N)=O)NC(=O)[C@H](CCCNC(=N)N)NC(=O)[C@H](CCCNC(=N)N)NC(=O)[C@H](CCCCN)NC(=O)[C@H](CCCCN)NC(=O)[C@H](CCCNC(=N)N)NC(=O)CCCC[C@@H]1SC[C@@H]2NC(=O)N[C@@H]21)[C@@H](C)O)C(=O)NCC(=O)N[C@@H](CC(N)=O)C(=O)O [Save1, Biot-RKKRRQRRR-DKRTQFWRYFAGN (hANT2)] (Biotin-RKKRRQRRRDKRTQFWRYFAGN-OH; C-terminus assumed)
binding to purified ANT (purified ANT): Binds Purified ANT
specific binding of VDAC (purified VDAC): did not result in any specific binding

C[C@H](NC(=O)CCCC[C@@H]1SC[C@@H]2NC(=O)N[C@@H]21)C(=O)N[C@@H](CS)C(=O)N[C@@H](CC(=O)O)C(=O)N[C@@H](CS)C(=O)N[C@@H](CCCNC(=N)N)C(=O)NCC(=O)N[C@@H](CC(=O)O)C(=O)N[C@@H](CS)C(=O)N[C@@H](Cc1ccccc1)C(=O)N[C@@H](CS)C(=O)NCC(=O)NCC(=O)N[C@@H](CC(=O)O)C(=O)N[C@@H](CCCCN)C(=O)N[C@@H](CCCNC(=N)N)C(=O)N[C@H](C(=O)N[C@@H](CCC(N)=O)C(=O)N[C@@H](Cc1ccccc1)C(=O)N[C@@H](Cc1c[nH]c2ccccc12)C(=O)N[C@@H](CCCNC(=N)N)C(=O)N[C@@H](Cc1ccc(O)cc1)C(=O)N[C@@H](Cc1ccccc1)C(=O)N1CCC[C@H]1C(=O)NCC(=O)N[C@@H](CC(N)=O)C(=O)O)[C@@H](C)O [Tox6, Biot-ACDCRGDCFC-GG-DKRTQFWRYFPGN (hANT2m)] (Biotin-ACDCRGDCFCGGDKRTQFWRYFPGN-OH; N-terminus and C-terminus assumed)
Kd (purified ANT): 0.7 nM
binding to purified ANT (purified ANT): Binds Purified ANT
Induction of Mitochondrial swelling (sw) [1]: ++
specific binding of VDAC (purified VDAC): did not result in any specific binding

Biot-CNGRC-GG-HFAIGCRHSAIG (Biotin-CNGRCGGHFAIGCRHSAIG; cysteine pairing not given here) [Ctr1Tox1]
Induction of Mitochondrial swelling (sw) [1]: −

C=C1[C@@H]2CC[C@H]3[C@]4(C)C[C@H](O[C@@H]5O[C@H](CO)[C@@H](OS(=O)(=O)O)[C@H](OS(=O)(=O)O)[C@H]5OC(=O)CC(C)C)C[C@@H](C(=O)O)[C@H]4CC[C@]3(C2)[C@H]1O [Atractyloside, atractyloside, reference compound]
Mitrochondrial swelling (sw) % ([1]; 600 μM): 110%
